The target in assay [1] is T1, Ub (Homo sapiens, UniProt P0CG48).
T1 construct: gene UBC; 15N-labeled Ub; cDNA encoding Ub cloned into pET-3a, expressed in E. coli
Conditions: cited from earlier work. The text has this:
(§1) There are about 20∼50 residues inserted in between two UIMs of S5a and Vps27, but the linker region between the two UIMs of AT3 is very short. These adjoining UIM motifs in AT3 raise a possible cooperativity for binding with Ub. Our structure determination and titration experiments reveal that the individual UIMs of AT3 can bind Ub respectively but with lower affinities. […] It seems that the cooperative interaction of AT3-UIM12 with diUb or polyUb is more remarkable than that with monoUb (Supplemental Fig. S7). […] Therefore, the altered affinities of AT3-UIM12 for monoUb or diUb may result from structural transformation of the linker region. The backbone dynamics provides further evidence for the conformational change in the linker region, which possibly allows cooperative interaction with Ub.

Assay [2] has as its target Ub. Conditions: cited from earlier work.
Description: as §1

For assay [3], the target named is T1, Ub. Conditions: read-out: K D,app.
Description: ^15N-Ub at a molar concentration of ∼0.2 mM was titrated with increasing amount of UIM peptides or its mutants. A series of ^1H-^15N HSQC spectra of Ub were obtained and the chemical shift changes were measured for each molar ratio. […] The combined average chemical shift changes (Δδave) were calculated as Δδave = [(0.2*ΔδN)^ 2 + (ΔδHN)^ 2]^1/2, where ΔδHN and ΔδN are the chemical shift changes in the ^1H and ^15N dimensions, respectively. […] The dissociation constant (K D) for the UIM-Ub binding was obtained by fitting the titration curves [61].
^15N- or ^15N/^13C-labeled samples (∼1 mM) were dissolved in a PBS buffer (20 mM phosphate, 100 mM NaCl, pH 6.5) containing 8% or 100% D2O and 0.02% (w/v) NaN3. […] All the NMR experiments were performed at 25°C on a Varian UNITY INOVA 600 MHz spectrometer equipped with three RF channels and a triple-resonance pulsed-field gradient probe.

This passage reports Kd results from paper PMC2951365, “Structural Transformation of the Tandem Ubiquitin-Interacting Motifs in Ataxin-3 and Their Cooperative Interactions with Ubiquitin Chains” (PLoS ONE, 2010).

Like-named read-outs stand apart in the source and are kept apart here.

In the case of “S5a UIM2 (281–301 in alignment); construct not told”, the Kd at Ub [1] is 73 µM.
On to “Vps27p UIM2 (300–320 in alignment); construct not told”, for which the Kd at Ub [2] was 117 µM.
For the substance “Vps27p UIM1 (257–277 in alignment); construct not told”, on Ub [2], the Kd is 277 µM.
In the case of “ataxin-3 residues 335–354; GB1 fusion [AT3-UIM3]”, the Kd on Ub [3] is above 3000 µM.
With “S5a UIM1 (210–230 in alignment); construct not told”, the Kd at Ub [1] was around 350 µM.
